In ChEMBL document CHEMBL1201862, “PubChem BioAssay data set” (2004):
One block for each compound: values may come before it. Activity calls are given as the source filed them.

Key:
[1] = target: Glyceraldehyde-3-phosphate dehydrogenase (Homo sapiens, UniProt P04406)
[2] = target: T1, Alkaline phosphatase, tissue-nonspecific isozyme (Homo sapiens, UniProt P05186); assay: potency against alkaline phosphatase TNAP – biochemical, luminescent, dose response, SAR follow-up (AID 1056)
T1 sequence (P05186 whole entry): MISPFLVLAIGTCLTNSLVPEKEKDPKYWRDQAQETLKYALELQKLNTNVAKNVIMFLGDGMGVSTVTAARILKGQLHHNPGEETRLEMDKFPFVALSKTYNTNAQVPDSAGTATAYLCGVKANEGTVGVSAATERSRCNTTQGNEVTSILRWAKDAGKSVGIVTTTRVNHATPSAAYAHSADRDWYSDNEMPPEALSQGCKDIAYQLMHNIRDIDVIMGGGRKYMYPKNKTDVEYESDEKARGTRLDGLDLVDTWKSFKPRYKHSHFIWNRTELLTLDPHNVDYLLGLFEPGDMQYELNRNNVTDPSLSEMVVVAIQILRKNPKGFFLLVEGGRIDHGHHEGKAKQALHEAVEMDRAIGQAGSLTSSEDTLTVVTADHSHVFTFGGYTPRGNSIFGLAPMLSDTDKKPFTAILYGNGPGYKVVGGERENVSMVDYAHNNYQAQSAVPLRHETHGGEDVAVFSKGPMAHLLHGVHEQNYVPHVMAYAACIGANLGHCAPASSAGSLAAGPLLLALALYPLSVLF

[3] = glucagon-like peptide-1 release potency in STC-1, concentration-response, half-maximal inhibitory concentration in the STC-1 line (AID 1117345); assay type: functional, cell-based
[4] = Potency on glucagon-like peptide 1 release, dose-response in NCI-H716 cell line, half maximal inhibitory concentration (AID 1117344); assay type: functional, cell-based
[5] = target: Voltage-dependent T-type calcium channel subunit alpha-1H (Homo sapiens, UniProt O95180); assay type: functional;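 note: channel activity triggered by adding a high calcium stimulation buffer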
[6] = target: T2, Luciferin 4-monooxygenase (Photinus pyralis, UniProt P08659); assay: Counter Screen for Luciferase-based Assay Positives. [Related pubchem assays: 620, 618, 411 ]
HT-1080 = assay: HT1080 cell viability loss – fluorescence readout (AID 620); assay type: functional, cell-based; details: Homo sapiens
[7] = target: T3, Heat shock factor protein 1 (Mus musculus, UniProt P38532); assay: decrease of HSF1-responsive luciferase luminescence – cell-based, NIH3T3, dose retest, confirmation (AID 2382); assay type: functional;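 note: NIH3T3 fibroblasts with HSF1-driven luciferase reporter stressed by proteasome inhibitor MG132; luminescence from HSF1-driven luciferase expression after 8 hours of MG132 stress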
T3 sequence (P38532 whole entry): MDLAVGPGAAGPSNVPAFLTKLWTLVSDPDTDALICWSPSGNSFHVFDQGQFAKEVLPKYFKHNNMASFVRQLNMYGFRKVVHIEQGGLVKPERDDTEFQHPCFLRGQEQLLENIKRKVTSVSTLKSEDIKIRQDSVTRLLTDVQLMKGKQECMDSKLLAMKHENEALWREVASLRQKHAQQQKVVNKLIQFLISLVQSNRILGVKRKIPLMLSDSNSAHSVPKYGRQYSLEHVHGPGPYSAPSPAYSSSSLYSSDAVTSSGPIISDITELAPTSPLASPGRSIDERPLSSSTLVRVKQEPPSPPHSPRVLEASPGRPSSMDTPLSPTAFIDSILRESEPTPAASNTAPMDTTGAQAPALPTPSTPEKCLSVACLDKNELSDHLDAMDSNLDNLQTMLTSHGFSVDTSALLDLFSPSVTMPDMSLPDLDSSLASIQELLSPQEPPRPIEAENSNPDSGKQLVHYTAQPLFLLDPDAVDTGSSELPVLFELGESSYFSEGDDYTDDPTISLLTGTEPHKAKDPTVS

[8] = target: T4, Acyl-homoserine lactone acylase PvdQ (Pseudomonas aeruginosa (strain LESB58), UniProt Q9I194); assay: PvdQ acylase enzyme activity blockers – biochemical, fluorescence, plate reader and imaging, cherry-picks, dose response (AID 493231)
T4 sequence (Q9I194 whole entry): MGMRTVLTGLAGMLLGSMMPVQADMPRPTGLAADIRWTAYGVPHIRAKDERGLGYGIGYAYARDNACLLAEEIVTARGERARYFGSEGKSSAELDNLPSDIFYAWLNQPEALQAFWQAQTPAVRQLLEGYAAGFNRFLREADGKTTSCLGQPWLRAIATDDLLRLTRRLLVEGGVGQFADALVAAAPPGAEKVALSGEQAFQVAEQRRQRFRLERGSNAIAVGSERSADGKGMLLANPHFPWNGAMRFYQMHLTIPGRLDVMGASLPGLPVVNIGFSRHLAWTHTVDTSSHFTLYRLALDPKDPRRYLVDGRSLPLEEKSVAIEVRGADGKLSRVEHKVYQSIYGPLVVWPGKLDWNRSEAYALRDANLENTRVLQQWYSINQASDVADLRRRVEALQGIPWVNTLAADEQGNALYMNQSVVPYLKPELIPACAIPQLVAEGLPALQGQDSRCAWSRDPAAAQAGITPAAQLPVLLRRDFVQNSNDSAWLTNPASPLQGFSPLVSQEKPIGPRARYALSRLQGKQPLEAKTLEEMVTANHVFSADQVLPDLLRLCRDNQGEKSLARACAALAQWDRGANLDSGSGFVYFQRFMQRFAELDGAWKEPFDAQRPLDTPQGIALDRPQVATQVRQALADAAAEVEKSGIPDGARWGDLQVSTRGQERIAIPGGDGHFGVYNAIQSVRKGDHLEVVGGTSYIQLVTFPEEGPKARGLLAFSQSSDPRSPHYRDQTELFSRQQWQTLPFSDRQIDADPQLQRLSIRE

Protein skinhead-1 = target: T5, Protein skinhead-1 (Caenorhabditis elegans, UniProt P34707); assay type: functional
T5 sequence (P34707 whole entry): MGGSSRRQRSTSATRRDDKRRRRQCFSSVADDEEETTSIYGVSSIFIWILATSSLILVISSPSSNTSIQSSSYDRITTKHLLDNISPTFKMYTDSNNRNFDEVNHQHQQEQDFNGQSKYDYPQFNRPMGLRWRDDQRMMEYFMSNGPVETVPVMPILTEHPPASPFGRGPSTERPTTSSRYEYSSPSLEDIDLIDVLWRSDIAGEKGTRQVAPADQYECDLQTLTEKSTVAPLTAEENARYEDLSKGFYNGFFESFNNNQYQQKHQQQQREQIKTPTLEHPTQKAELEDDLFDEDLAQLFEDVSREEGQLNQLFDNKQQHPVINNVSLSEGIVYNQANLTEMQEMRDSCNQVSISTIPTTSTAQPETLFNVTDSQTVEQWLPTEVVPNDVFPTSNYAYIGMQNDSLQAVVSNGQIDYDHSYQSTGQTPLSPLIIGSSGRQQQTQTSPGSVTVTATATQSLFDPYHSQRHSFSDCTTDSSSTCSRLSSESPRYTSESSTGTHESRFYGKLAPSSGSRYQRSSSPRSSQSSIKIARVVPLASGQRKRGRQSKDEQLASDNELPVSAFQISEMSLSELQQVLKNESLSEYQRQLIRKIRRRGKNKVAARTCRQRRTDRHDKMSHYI

[9] = A549 cell cytotoxicity, dose response, cytotoxicity control, plate reader, cherry-pick, antagonist series (AID 743412); assay type: functional, cell-based
[10] = blockers of bursicon-stimulated LGR2 cAMP reporter – cell-based, HEK293, CRE-luciferase reporter, cherry pick, set 2, dose response (AID 743343); assay type: functional;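 note: transfected cells were stimulated with diluted bursicon conditioned medium after compound addition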
[11] = blockade of melanocortin 4 receptor signaling – cell-based, plate reader, cherry pick, counter-screen for LGR2 antagonist project, dose response (AID 743444); assay type: functional;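 note: transfected HEK 293 cells stimulated with alpha-MSH peptide; potency of inhibitors of the alpha-MSH evoked signal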
BJ [12] = assay: BJ-TERT fibroblast viability loss – cell-based, RAS-independent, luminescence, dose response (AID 1933); assay type: functional; details: Homo sapiens
BJ [13] = assay: cells; assay type: functional, cell-based; details: Homo sapiens
[14] = target: T2, Luciferin 4-monooxygenase; assay: inhibition of purified Photinus pyralis luciferase – biochemical, luminescence, dose response (AID 1891)
[15] = Luminescence Cell-Based Dose Confirmation HTS to Identify Inhibitors of Platelet Dense Granule Release. [Related pubchem assays: 1663 (Primary HTS), 1678 (Summary of Project)]; assay type: functional
BJ [16] = assay: BJ-TERT-LT-ST fibroblast viability loss – cell-based, RAS-independent, luminescence, dose response (AID 1935); assay type: functional; details: Homo sapiens;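 note: BJ fibroblasts immortalized with TERT plus LT and ST oncogenes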
[17] = DRD fibroblast viability loss – cell-based, non-viral oncogenic, luminescence, dose response (AID 1934); assay type: functional; details: Homo sapiens
[18] = target: DNA dC->dU-editing enzyme APOBEC-3G (Homo sapiens, UniProt Q9HC16); assay: Dose Response confirmation of small molecule APOBEC3G DNA Deaminase Inhibitors via a fluorescence-based single-stranded DNA deaminase assay. [Related pubchem assays (depositor defined):AID493012, AID493028]; assay type: functional
[19] = target: FAD-linked sulfhydryl oxidase ALR (Homo sapiens, UniProt P55789); assay: ALR-catalysed DTT oxidation blockers – biochemical, H2O2 detection, luminescence, cherry-pick, dose response (AID 493248)
[20] = target: G-protein coupled receptor 55 (Homo sapiens, UniProt Q9Y2T6); assay: inhibition of LPI-stimulated GPR55 beta-arrestin translocation – imaging, U2OS, beta-arrestin-GFP, LPI agonist, primary screen (AID 2013); assay type: functional;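 note: antagonist potency measured as reduced agonist-driven arrestin aggregation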
G-protein coupled receptor 55, sequence (Q9Y2T6 whole entry): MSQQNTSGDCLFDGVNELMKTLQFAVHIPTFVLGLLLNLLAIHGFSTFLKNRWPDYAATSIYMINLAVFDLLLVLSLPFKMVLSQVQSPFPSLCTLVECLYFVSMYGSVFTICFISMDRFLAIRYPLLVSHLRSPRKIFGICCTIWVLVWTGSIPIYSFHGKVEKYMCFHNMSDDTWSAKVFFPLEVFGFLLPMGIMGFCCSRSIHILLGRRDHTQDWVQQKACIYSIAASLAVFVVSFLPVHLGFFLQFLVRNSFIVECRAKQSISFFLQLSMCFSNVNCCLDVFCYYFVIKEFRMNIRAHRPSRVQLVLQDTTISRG

T2 sequence (P08659 whole entry): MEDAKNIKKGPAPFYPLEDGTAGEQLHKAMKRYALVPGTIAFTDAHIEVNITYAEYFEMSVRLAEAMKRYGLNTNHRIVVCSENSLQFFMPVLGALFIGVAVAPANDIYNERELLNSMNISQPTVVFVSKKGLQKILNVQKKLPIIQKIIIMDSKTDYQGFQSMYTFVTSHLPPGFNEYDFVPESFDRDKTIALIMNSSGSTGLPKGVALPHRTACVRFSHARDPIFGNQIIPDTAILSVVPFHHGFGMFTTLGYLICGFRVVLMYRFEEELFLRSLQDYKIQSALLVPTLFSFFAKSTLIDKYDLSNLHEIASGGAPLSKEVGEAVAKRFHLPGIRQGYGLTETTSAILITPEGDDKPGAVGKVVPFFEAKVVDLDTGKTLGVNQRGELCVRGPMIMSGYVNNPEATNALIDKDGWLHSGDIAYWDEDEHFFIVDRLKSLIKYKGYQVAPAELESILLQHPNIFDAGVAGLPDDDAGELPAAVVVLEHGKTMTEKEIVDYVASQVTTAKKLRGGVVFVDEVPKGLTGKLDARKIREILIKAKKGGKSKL
Voltage-dependent T-type calcium channel subunit alpha-1H, sequence (O95180 whole entry): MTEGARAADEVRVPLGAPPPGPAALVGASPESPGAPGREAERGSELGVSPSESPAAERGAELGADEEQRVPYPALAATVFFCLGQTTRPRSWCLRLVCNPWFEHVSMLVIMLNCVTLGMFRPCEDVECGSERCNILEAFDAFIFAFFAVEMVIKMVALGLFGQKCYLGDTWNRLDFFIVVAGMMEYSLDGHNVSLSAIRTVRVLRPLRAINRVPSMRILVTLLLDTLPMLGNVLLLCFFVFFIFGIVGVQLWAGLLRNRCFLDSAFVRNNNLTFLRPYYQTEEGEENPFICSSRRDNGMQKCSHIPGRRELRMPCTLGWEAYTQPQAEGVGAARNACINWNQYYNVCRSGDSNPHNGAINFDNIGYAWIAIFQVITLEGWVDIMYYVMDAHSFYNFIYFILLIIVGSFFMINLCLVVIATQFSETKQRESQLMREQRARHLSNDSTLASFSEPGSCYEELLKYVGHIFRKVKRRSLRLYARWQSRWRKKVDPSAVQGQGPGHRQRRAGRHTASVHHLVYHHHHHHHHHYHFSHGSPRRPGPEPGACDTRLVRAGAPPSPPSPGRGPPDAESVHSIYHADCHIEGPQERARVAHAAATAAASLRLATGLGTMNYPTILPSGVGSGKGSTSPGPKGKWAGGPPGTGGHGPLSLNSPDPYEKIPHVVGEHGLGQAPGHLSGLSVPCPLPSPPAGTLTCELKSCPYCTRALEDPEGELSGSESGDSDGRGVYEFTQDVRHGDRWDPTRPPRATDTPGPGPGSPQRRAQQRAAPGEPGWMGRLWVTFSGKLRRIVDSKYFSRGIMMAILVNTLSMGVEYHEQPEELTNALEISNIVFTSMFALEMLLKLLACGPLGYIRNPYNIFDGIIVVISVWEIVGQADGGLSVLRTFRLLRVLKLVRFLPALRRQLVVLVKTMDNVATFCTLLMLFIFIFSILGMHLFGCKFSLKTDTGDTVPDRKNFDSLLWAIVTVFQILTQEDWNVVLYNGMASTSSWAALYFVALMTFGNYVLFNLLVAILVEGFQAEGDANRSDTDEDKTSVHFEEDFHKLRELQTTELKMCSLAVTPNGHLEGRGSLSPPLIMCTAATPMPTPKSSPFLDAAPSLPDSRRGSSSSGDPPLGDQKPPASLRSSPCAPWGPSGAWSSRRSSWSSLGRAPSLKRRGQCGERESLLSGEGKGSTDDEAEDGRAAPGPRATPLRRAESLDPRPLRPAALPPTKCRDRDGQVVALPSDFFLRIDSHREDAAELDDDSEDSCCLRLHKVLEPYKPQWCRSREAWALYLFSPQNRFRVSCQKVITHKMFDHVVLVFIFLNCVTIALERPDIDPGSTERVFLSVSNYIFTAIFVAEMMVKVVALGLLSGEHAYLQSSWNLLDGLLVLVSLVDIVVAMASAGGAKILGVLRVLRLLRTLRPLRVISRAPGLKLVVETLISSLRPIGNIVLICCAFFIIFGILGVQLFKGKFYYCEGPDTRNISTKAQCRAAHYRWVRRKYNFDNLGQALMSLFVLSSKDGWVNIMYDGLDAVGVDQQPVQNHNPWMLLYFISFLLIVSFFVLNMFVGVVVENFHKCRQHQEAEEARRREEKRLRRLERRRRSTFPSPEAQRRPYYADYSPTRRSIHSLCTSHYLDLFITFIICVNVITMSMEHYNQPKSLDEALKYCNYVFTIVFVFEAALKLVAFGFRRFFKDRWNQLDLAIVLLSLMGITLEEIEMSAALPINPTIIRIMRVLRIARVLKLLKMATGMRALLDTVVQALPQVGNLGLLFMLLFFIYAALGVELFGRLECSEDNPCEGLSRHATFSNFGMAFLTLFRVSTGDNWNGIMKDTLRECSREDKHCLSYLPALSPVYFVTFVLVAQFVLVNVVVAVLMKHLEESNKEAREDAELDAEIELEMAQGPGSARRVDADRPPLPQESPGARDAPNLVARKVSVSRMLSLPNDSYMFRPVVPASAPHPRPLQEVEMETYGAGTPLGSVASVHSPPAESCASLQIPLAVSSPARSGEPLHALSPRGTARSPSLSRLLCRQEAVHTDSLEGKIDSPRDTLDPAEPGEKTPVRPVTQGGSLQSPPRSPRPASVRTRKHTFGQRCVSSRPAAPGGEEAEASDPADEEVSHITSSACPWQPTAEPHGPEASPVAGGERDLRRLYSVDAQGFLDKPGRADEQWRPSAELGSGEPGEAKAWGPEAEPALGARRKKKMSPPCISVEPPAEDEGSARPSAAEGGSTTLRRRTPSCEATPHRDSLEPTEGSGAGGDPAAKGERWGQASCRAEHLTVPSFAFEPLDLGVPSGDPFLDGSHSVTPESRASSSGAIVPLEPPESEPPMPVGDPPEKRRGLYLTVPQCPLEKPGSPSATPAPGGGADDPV
FAD-linked sulfhydryl oxidase ALR, sequence (P55789 whole entry): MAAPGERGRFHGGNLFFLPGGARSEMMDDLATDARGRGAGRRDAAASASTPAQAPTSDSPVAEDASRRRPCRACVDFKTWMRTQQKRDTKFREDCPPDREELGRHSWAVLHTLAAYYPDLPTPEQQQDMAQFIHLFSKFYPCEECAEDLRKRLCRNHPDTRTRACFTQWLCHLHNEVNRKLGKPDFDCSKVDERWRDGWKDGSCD
DNA dC->dU-editing enzyme APOBEC-3G, sequence (Q9HC16 whole entry): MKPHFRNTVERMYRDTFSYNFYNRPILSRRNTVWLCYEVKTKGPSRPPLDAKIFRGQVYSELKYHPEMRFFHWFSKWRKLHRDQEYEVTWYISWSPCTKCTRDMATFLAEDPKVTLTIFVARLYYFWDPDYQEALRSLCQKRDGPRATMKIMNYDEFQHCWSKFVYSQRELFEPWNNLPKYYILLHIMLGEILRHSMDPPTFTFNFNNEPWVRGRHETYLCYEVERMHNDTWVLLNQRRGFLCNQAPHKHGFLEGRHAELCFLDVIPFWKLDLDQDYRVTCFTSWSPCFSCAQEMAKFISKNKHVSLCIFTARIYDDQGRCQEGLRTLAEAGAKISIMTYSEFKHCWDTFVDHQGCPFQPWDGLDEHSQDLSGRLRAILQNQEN
Glyceraldehyde-3-phosphate dehydrogenase, sequence (P04406 whole entry): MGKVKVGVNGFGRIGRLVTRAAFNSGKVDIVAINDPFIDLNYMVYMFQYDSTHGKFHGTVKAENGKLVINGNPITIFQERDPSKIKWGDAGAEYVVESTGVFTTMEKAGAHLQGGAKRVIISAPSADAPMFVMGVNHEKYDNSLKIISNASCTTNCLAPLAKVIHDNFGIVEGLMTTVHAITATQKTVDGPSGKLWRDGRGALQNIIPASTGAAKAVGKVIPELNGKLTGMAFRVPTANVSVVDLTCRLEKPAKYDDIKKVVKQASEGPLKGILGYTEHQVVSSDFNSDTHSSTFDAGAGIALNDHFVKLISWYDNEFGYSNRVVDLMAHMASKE

IC50 [1]: > 100 µM (not active) | IC50 [2]: > 100 µM (inactive)
SMILES: CC(C)c1cc(C(C)C)c(S(=O)(=O)Nc2cnc3ccccc3c2)c(C(C)C)c1

SMILES: Nc1ccc(Cl)cc1C(=O)c1ccccc1F
IC50 [3]: > 40 µM (inactive) | IC50 [4]: > 40 µM (inactive)

EC50 [5]: 60.1 µM (active)
SMILES: CCCC(C)NC(=O)c1ccc2[nH]c3c(c2c1)CC(C)CC3 (stereo unspecified)

SMILES: Cc1cc(N)n2nc(-c3ccccc3)cc2n1
EC50 [6]: 1.04 µM (active) | EC50 (HT-1080): > 50 µM (not active)

SMILES: CCOc1ccc(-c2cnc3ccccc3n2)cc1
EC50 [7]: 10 µM (active) | AC50 [8]: 97.4 µM (active) | IC50 (Protein skinhead-1): > 100 µM (inactive) | AC50 [9]: 30.8 µM (active) | AC50 [10]: 1.77 µM (active) | AC50 [11]: 1.8 µM (active)

SMILES: O=C(Nc1ccccn1)c1cc2ccccc2o1
EC50 (BJ [12]): 11.2 µM (active) | EC50 [6]: 0.22 µM (active) | EC50 (BJ [13]): 16.1 µM (active) | EC50 [14]: 3.03 µM (active) | EC50 [15]: 3.9 µM (active) | EC50 (HT-1080): > 50 µM (not active) | EC50 (BJ [16]): > 150 µM (inconclusive) | EC50 [17]: 11.2 µM (active)

SMILES: Sc1nnc(-c2ccccn2)n1/N=C/c1cccc2ccccc12
IC50 [18]: 2.35 µM (active) | AC50 [19]: 10.8 µM (active)

SMILES: CCCCCCCCCCCCOCCOCCOCCOCCOCCOCCOCCOCCOCCO
IC50 [3]: 30.4 µM (inactive) | IC50 [4]: > 40 µM (inactive)

IC50 [20]: 0.624 µM (active)
SMILES: Cn1c(=O)n(C/C=C/c2ccccc2)c(=O)c2c1nc1n2CCCN1c1ccc(F)cc1
